In PMC6218659, “Structures of DPAGT1 Explain Glycosylation Disease Mechanisms and Advance TB Antibiotic Design” (Cell, 2018):
In brackets after ≈: the same amount, converted by molar mass. Where two headings read alike, the source gives them in different places.

What was measured:
B. subtilis EC1524 = assay: Micro-broth dilution and drop plate antimicrobial susceptibility test; assay type: cell-based, Bacillus subtilis; conditions: for IC50 / MBC / MIC: Bacillus subtilis; for Relative Therapeutic Index (RTI), B. subtilis EC1524: minimal lethal dose / MIC, 800 μg mL-1 used for >400
Description: (§1) In a sterile 96-well plate, serial dilutions were made with the test substance to final volume of 50 μl. Inoculum was then prepared in Mueller-Hinton broth to 0.5 McFarland and diluted before adding 50 μl to the well to make ∼1x10^5 CFU/ml. The culture plate was incubated at 35 °C for 20-24 hrs. A positive growth control and sterility wells were also prepared along with the culture wells. Absorbance at OD600 was taken using BMG Labtech SPECTROstar Omega spectrophotometer. MIC is determined by the lowest concentration without growth. IC50 is determined from plotting a dose-response curve, see Data Analysis below. To determine the MBC, using a multi-channel pipette, 1 μl of culture broth was taken from the same 96-well microdilution growth plate and carefully inoculated on surface of MH agar plate. The plate is then incubated for additional 20 hrs. at 35 °C. The MBC value is the lowest concentration without observed growth on the agar.

B. cereus ATCC11778 = assay: as above; assay type: cell-based, Bacillus cereus; conditions: for Relative Therapeutic Index (RTI), B. cereus NRRL 11778: minimal lethal dose / MIC, 800 μg mL-1 used for >400
Description: as §1

E. coli ATCC25922 = assay: as above; assay type: cell-based; conditions: Escherichia coli
Description: as §1

P. aeruginosa ATCC27853 = assay: as above; assay type: cell-based; conditions: Pseudomonas aeruginosa
Description: as §1

S. aureus ATCC29219 = assay: as above; assay type: cell-based; conditions: Staphylococcus aureus
Description: as §1

Mtb H37Rv ATCC27294 = assay: Minimum inhibitory concentrations testing against Mtb; assay type: cell-based, Mycobacterium tuberculosis; conditions: for MIC: Mycobacterium tuberculosis, 168 h; for Relative Therapeutic Index (RTI), Mtb H37RV a / Relative Therapeutic Index (RTI), Mtb H37RV b: minimal lethal dose / MIC, 800 μg mL-1 used for >400; for Relative Therapeutic Index (RTI), Mtb H37RV a: 7H9/ADC/Tw; for Relative Therapeutic Index (RTI), Mtb H37RV b: GAST/Fe
HEK293 cells = assay: Cell proliferation assay (MTS); assay type: cell-based, human; conditions: for LD50 values, HEK293: MTS cell proliferation assay, 24 hrs, highest concentration 400 µg mL-1; for Minimal Lethal Dose, HEK 293: serial 2-fold dilutions (Table S6)
Description: (§2) In sterile 96-well plate, each well was seeded with ∼1x10^5 cells. The cells are then grown confluent overnight in 100 μl DMEM with 10% FBS. The medium is replenished with DMEM with 2% FBS and added vehicle control or test substance the next day. For test substance in methanol, stock was added to 25 μl of DMEM with 2% FBS or PBS and placed in the laminar flow hood to let the methanol evaporate (about 1-3 hrs). Once the methanol has evaporated, DMEM with 2% FBS was added to final volume of 100 μl of desired test concentration. […] Cells are grown for additional 24 hrs. The cell viability was determined by using Promega CellTiter 96^© AQueous One Solution Cell Proliferation Assay (3-(4,5-dimethylthiazol-2-yl)-5-(3-carboxymethoxyphenyl)-2-(4-sulfophenyl)-2H-tetrazolium, inner salt; MTS) System following the manufacture protocol.

HepG2 cells = assay: Cell proliferation assay (MTS); assay type: cell-based, human; conditions: for LD50 values, HepG2: MTS cell proliferation assay, 24 hrs, highest concentration 400 µg mL-1; for Minimal Lethal Dose, HepG2: serial 2-fold dilutions (Table S6)
Description: as §2

Raji cells = assay: Cell proliferation assay (MTS); assay type: cell-based, human; conditions: 24 hrs
Description: as §2

[1] = system: Mtb-infected J774A.1 macrophages; assay: Efficacy against Mtb growing in infected macrophages; conditions: J774A.1 macrophages treated 3 or 7 days
DPAGT1 = molecular target: T1, DPAGT1 (Homo sapiens, UniProt Q9H3H5); assay: Radiolabeled substrate enzyme activity assay; assay type: biochemical, H. sapiens; conditions: equimolar to Dol-P and UDP-GlcNAc
T1 construct: H. sapiens DPAGT1 (1-408, N-terminal 6 x HIS tag, TEV cleavage site); 6xHis purification tag with TEV site (N, cleaved yes); made in house; host or cells: Spodoptera frugiperda Sf9 insect cells (baculovirus)
T1 sequence (Q9H3H5 1-408): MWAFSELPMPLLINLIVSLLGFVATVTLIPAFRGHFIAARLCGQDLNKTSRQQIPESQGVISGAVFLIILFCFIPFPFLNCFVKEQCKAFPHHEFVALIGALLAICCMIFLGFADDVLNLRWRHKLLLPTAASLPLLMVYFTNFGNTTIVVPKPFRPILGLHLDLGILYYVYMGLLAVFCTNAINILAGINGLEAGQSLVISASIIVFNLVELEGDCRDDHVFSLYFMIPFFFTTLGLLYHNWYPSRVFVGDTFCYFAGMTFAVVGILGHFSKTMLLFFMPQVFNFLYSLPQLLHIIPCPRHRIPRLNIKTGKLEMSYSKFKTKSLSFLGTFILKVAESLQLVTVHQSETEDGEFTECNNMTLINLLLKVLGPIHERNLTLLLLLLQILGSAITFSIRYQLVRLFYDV
Description: 2 μl of 2 μM DPAGT1 WT or mutant proteins in GFB buffer supplemented with 5mM extra MgCl2, 1% OGNG/CHS/cardiolipin and dolichyl monophosphate was combined with 2 μl of UDP-N-acetyl [1-14C] […] The reaction was terminated by the addition of 6 μl of 100% methanol and immediately transferred onto ice. 1 μl of sample was spotted onto a silica coated TLC plate in triplicate and run with a mobile phase consisting of chloroform, methanol, and water at a 65:25:4 ratio respectively. After the run, the TLC plate was dried thoroughly, wrapped in cling film, incubated with a phosphor imaging substrate for 4 days, then phosphor imaged using a Biorad. The pixel density of the spots corresponding to the hydrophobic product was divided by combined pixel density of the product and the substrate and multiplied by the known concentration of substrate added to ascertain the amount of product formed.

[2] = EC1524, read-out: Minimal Inhibitory Concentration, B. subtilis EC1524
[3] = Bacillus cereus, ATCC 11778 / NRRL11778, read-out: Minimal Inhibitory Concentration, B. cereus NRRL 11778
[4] = read-out: 1-week MIC in 7H9/ADC/Tw
[5] = read-out: 1-week MIC in GAST/Fe
[6] = read-out: Minimal Inhibitory Concentration, Mtb H37RV a
[7] = read-out: Minimal Inhibitory Concentration, Mtb H37RV b

| Compound | IC50 (B. subtilis EC1524; EC1524) [µg/mL] | MBC (B. subtilis EC1524; EC1524) [µg/mL] | MIC (B. subtilis EC1524; EC1524) [µg/mL] | MIC (B. subtilis EC1524; [2]) [µg/mL] | Relative Therapeutic Index (RTI), B. subtilis EC1524 (B. subtilis EC1524) | IC50 (B. cereus ATCC11778; Bacillus cereus, ATCC11778) [µg/mL] | MBC (B. cereus ATCC11778; Bacillus cereus, ATCC11778) [µg/mL] | MIC (B. cereus ATCC11778; Bacillus cereus, ATCC11778) [µg/mL] | MIC (B. cereus ATCC11778; [3]) [µg/mL] | Relative Therapeutic Index (RTI), B. cereus NRRL 11778 (B. cereus ATCC11778) | IC50 (E. coli ATCC25922) [µg/mL] | MBC (E. coli ATCC25922) [µg/mL] | MIC (E. coli ATCC25922) [µg/mL] | IC50 (P. aeruginosa ATCC27853) [µg/mL] | MBC (P. aeruginosa ATCC27853) [µg/mL] | MIC (P. aeruginosa ATCC27853) [µg/mL] | IC50 (S. aureus ATCC29219) [µg/mL] | MBC (S. aureus ATCC29219) [µg/mL] | MIC (S. aureus ATCC29219) [µg/mL] | MIC (Mtb H37Rv ATCC27294; [4]) [µg/mL] | further results |
| --- | --- | --- | --- | --- | --- | --- | --- | --- | --- | --- | --- | --- | --- | --- | --- | --- | --- | --- | --- | --- | --- |
| CCCCCCCCCC(=O)N[C@H]1[C@H](O[C@H]2O[C@H](CO)[C@@H](O)[C@H](O)[C@H]2NC(=O)CCCCCCCCC)O[C@H](C[C@@H](O)[C@H]2O[C@@H](n3ccc(=O)[nH]c3=O)[C@H](O)[C@@H]2O)[C@H](O)[C@@H]1O [TUN-10,10, Di-N-decanoyl-tunicamycin] | 0.12 ± 0.04 (≈ 0.137 µM) | > 0.39 | 0.33 ± 0.11 (≈ 0.377 µM) | 0.39 (≈ 0.446 µM) | 2050 | 0.046 (≈ 0.0526 µM) | 12.5 (≈ 14.3 µM) | 0.33 ± 0.11 (≈ 0.377 µM) | 0.39 (≈ 0.446 µM) | 2050 | 91.6 (≈ 105 µM) | 400 (≈ 457 µM) | 330 ± 120 (≈ 377 µM) | 53.5 (≈ 61.1 µM) | 400 (≈ 457 µM) | 83 ± 29 (≈ 94.9 µM) | 49.3 (≈ 56.3 µM) | 400 (≈ 457 µM) | 83 ± 29 (≈ 94.9 µM) | 1.2 ± 0.3 (≈ 1.37 µM) | MIC (B. cereus ATCC11778; B. cereus, micro-broth dilution, mean ± SEM (n=3)): 0.33 ± 0.11 µg/mL (≈ 0.377 µM); MIC (Mtb H37Rv ATCC27294; [5]): 0.1 ± 0.1 µg/mL (≈ 0.114 µM); MIC (Mtb H37Rv ATCC27294; [6]): 1.2 µg/mL (≈ 1.37 µM); MIC (Mtb H37Rv ATCC27294; [7]): 0.1 µg/mL (≈ 0.114 µM); Relative Therapeutic Index (RTI), Mtb H37RV a (Mtb H37Rv ATCC27294): 667; Relative Therapeutic Index (RTI), Mtb H37RV b (Mtb H37Rv ATCC27294): 8000; LD50 values, HEK293 (HEK293 cells): N/A (N/A = not available. No or low cytotoxicity observed at highest, saturating concentration tested (400 µg mL-1)); Minimal Lethal Dose, HEK 293 (HEK293 cells): > 400 µg/mL; LD50 values, HepG2 (HepG2 cells): N/A (N/A = not available. No or low cytotoxicity observed at highest, saturating concentration tested (400 µg mL-1)); Minimal Lethal Dose, HepG2 (HepG2 cells): > 400 µg/mL; LD50 values, Raji (Raji cells): 196.17 ± 47.61 µg/mL; reduction of intracellular bacterial burdens ([1]; 1 × MIC): 1 logs; reduction of intracellular bacterial burdens ([1]; 10 × MIC): 2 logs |
| CCCCCCCCCCC(=O)N[C@H]1[C@H](O[C@H]2O[C@H](CO)[C@@H](O)[C@H](O)[C@H]2NC(=O)CCCCCCCCCC)O[C@H](C[C@@H](O)[C@H]2O[C@@H](n3ccc(=O)[nH]c3=O)[C@H](O)[C@@H]2O)[C@H](O)[C@@H]1O [TUN-11,11, Di-N-undecanoyl-tunicamycin] | 0.85 ± 0.28 (≈ 0.941 µM) | > 1.56 | 1.3 ± 0.45 (≈ 1.44 µM) | 1.56 (≈ 1.73 µM) | 513 | 0.088 (≈ 0.0974 µM) | > 25 | 0.65 ± 0.23 (≈ 0.72 µM) | 0.78 (≈ 0.864 µM) | 1026 | 131 (≈ 145 µM) | 400 (≈ 443 µM) | 330 ± 120 (≈ 365 µM) | 63.2 (≈ 69.9 µM) | 400 (≈ 443 µM) | 83 ± 29 (≈ 91.9 µM) | 58 (≈ 64.3 µM) | 400 (≈ 443 µM) | 170 ± 60 (≈ 188 µM) | 4.1 ± 2.2 (≈ 4.54 µM) | MIC (Mtb H37Rv ATCC27294; [5]): 1.6 ± 1.6 µg/mL (≈ 1.77 µM); MIC (Mtb H37Rv ATCC27294; [6]): 4.1 µg/mL (≈ 4.54 µM); MIC (Mtb H37Rv ATCC27294; [7]): 1.6 µg/mL (≈ 1.77 µM); Relative Therapeutic Index (RTI), Mtb H37RV a (Mtb H37Rv ATCC27294): 195; Relative Therapeutic Index (RTI), Mtb H37RV b (Mtb H37Rv ATCC27294): 500; LD50 values, HEK293 (HEK293 cells): N/A (N/A = not available. No or low cytotoxicity observed at highest, saturating concentration tested (400 µg mL-1)); Minimal Lethal Dose, HEK 293 (HEK293 cells): > 400 µg/mL; LD50 values, HepG2 (HepG2 cells): N/A (N/A = not available. No or low cytotoxicity observed at highest, saturating concentration tested (400 µg mL-1)); Minimal Lethal Dose, HepG2 (HepG2 cells): > 400 µg/mL; LD50 values, Raji (Raji cells): 103.65 ± 34.34 µg/mL; reduction of intracellular bacterial burdens ([1]; 1 × MIC): 1 logs; reduction of intracellular bacterial burdens ([1]; 10 × MIC): 2 logs |
| N-Acetyl-1-[P’-(3Z,7Z,11Z,15Z,19Z,23Z,27Z,31E,35E,39E,43-undecamethyl-2,6,10,14,18,22,26,30,34,38,42-tetratetracontaundecaenyl) P,P'-dihydrogen diphosphate]-α-d-glucosamine diammonium salt [GlcNAc-PP-Und] |  |  |  |  |  |  |  |  |  |  |  |  |  |  |  |  |  |  |  |  | reduction of DPAGT1 activity on adding product analogue (DPAGT1): 3 fold |
